Results as given in US20150299143A1, “SUBSTITUTED TRIAZOLE AND IMIDAZOLE COMPOUNDS” (HOFFMANN-LA ROCHE INC., priority 2012, published 2015).
One block for each compound: values may come before it.

Assays:
[1] = target: T1, β5c (chymotrypsin-like activity) (Homo sapiens, UniProt P20618+P28074); test: Cell-Based Proteasome subunit activity/selectivity assay, β5c, substrate (WLA)2Rh110; conditions: Ramos cells; substrate (WLA)2Rh110 (β5c); highest concentration tested 20 μM; read-out: Ic50:ramos:rh110-(wla)2
T1 construct: protease activity associated with the proteasome complex in cultured cells; endogenous in cells; host or cells: Ramos cells
From the text: (§1) Cell-Based Proteasome Activity/Selectivity Assay
(§2) The Cell-Based Proteasome subunit activity/selectivity assay was a panel of 5 fluorogenic assays that independently measured the activity of β5c or β 5i (chymotrypsin-like activity), β 2c/2i (trypsin-like), and β 1c or β 1i (caspase-like) protease activity associated with the proteasome complex in cultured cells. Specifically, the following substrates were used for respective subunit activities: β 1i (PAL)2Rh110, β 1c: (LLE)2 Rh110, β 2c/2i: (KQL)2Rh110, β 5c: (WLA)2Rh110, β 5i: (ANW)2Rh110. The following procedure was followed:
(§3) Added 0.5 μl of 100× 4-fold serial diluted test compounds or DMSO to each well. Highest concentration of compound tested was 20 μM, thus compound serial dilution started from […]. Incubated for 30 minutes at 37° C. Then equilibrated at room temperature for 15 minutes. […] Shaked for one minute @ 700 rpm. Incubated for 120 min at room temperature. Then read the plates with an Envision multilabel plate reader (PerkinElmer) with 500 nm excitation/519 nm emission.

β 1i (caspase-like) = target: T2, β 1i (caspase-like) (Homo sapiens, UniProt P28065+P40306); test: Cell-Based Proteasome subunit activity/selectivity assay, β1i, substrate (PAL)2Rh110; conditions: Ramos cells; substrate (PAL)2Rh110 (β1i); highest concentration tested 20 μM; read-out: Ic50:ramos:rh110-(pal)2
T2 construct: protease activity associated with the proteasome complex in cultured cells; endogenous in cells; host or cells: Ramos cells
From the text: as §1, §2, §3

β 1c (caspase-like) = target: T3, β 1c (caspase-like) (Homo sapiens, UniProt P28072+Q99436); test: Cell-Based Proteasome subunit activity/selectivity assay, β1c, substrate (LLE)2Rh110; conditions: Ramos cells; substrate (LLE)2Rh110 (β1c); highest concentration tested 20 μM; read-out: Ic50:ramos:rh110-(lle)2
T3 construct: protease activity associated with the proteasome complex in cultured cells; endogenous in cells; host or cells: Ramos cells
From the text: as §1, §2, §3

[2] = target: T4, β 5i (chymotrypsin-like activity) (Homo sapiens, UniProt P20618+P28062); test: Cell-Based Proteasome subunit activity/selectivity assay, β5i, substrate (ANW)2Rh110; conditions: Ramos cells; substrate (ANW)2Rh110 (β5i); highest concentration tested 20 μM; read-out: Ic50:ramos:ac-(anw)2-r110
T4 construct: protease activity associated with the proteasome complex in cultured cells; endogenous in cells; host or cells: Ramos cells
From the text: as §1, §2, §3

β 2c/2i (trypsin-like) = test: Cell-Based Proteasome subunit activity/selectivity assay, β2c/2i, substrate (KQL)2Rh110; conditions: Ramos cells; substrate (KQL)2Rh110 (β2c/2i); highest concentration tested 20 μM
From the text: as §1, §2, §3

Compound: CCc1ccc(C(C#N)NC(=O)c2cn(CCNC(=O)c3ccc(C(F)(F)F)cn3)nn2)cc1 (centres unmarked) [Example 45, 5-Trifluoromethyl-pyridine-2-carboxylic acid [2-(4-{[cyano-(4-ethyl-phenyl)-methyl]-carbamoyl}-[1,2,3]triazol-1-yl)-ethyl]-amide]
IC50 [1]: ≥ 20 µM
IC50 (β 1i (caspase-like)): ≥ 20 µM
IC50 (β 1c (caspase-like)): ≥ 20 µM
IC50 [2]: 1.13 µM
IC50 (β 2c/2i (trypsin-like)): ≥ 20 µM

Compound: COc1ccc(C(=O)NCCn2cc(C(=O)NC(C#N)c3ccc4ccsc4c3)nn2)c(OC)c1OC (centres unmarked) [Example 66, 1-[2-(2,3,4-Trimethoxy-benzoylamino)-ethyl]-1H-[1,2,3]triazole-4-carboxylic acid (benzo[b]thiophen-6-yl-cyano-methyl)-amide]
IC50 [1]: ≥ 20 µM
IC50 (β 1i (caspase-like)): ≥ 20 µM
IC50 (β 1c (caspase-like)): ≥ 20 µM
IC50 [2]: 0.795 µM
IC50 (β 2c/2i (trypsin-like)): ≥ 20 µM

Compound: COc1ccc(C(=O)NCCn2cc(C(=O)NC(C#N)c3ccc4c(c3)OCO4)nn2)c(OC)c1OC (centres unmarked) [Example 53, 1-[2-(2,3,4-Trimethoxy-benzoylamino)-ethyl]-1H-[1,2,3]triazole-4-carboxylic acid (benzo[1,3]dioxol-5-yl-cyano-methyl)-amide]
IC50 [1]: ≥ 20 µM
IC50 (β 1i (caspase-like)): ≥ 20 µM
IC50 (β 1c (caspase-like)): ≥ 20 µM
IC50 [2]: 0.585 µM
IC50 (β 2c/2i (trypsin-like)): ≥ 20 µM

Compound: COc1ccc(C(=O)NCCn2cc(C(=O)NC(C#N)c3ccc(OC(C)C)cc3)nn2)c(OC)c1OC (centres unmarked) [Example 67, 1-[2-(2,3,4-Trimethoxy-benzoylamino)-ethyl]-1H-[1,2,3]triazole-4-carboxylic acid [cyano-(4-isopropoxy-phenyl)-methyl]-amide]
IC50 [1]: ≥ 20 µM
IC50 (β 1i (caspase-like)): ≥ 20 µM
IC50 (β 1c (caspase-like)): ≥ 20 µM
IC50 [2]: 5.49 µM
IC50 (β 2c/2i (trypsin-like)): ≥ 20 µM

Compound: CCc1ccc(C(C#N)NC(=O)c2cn(CCNC(=O)c3ccc(OC)c(OC)c3OC)nn2)cc1 (single isomer, unassigned) [Example 51]
IC50 (β 1i (caspase-like)): ≥ 20 µM
IC50 [2]: 0.604 µM

Compound: CCc1ccc(C(C#N)NC(=O)c2cn(CCNC(=O)c3cc(Cl)cc(C)n3)nn2)cc1 (centres unmarked) [Example 21, 4-Chloro-6-methyl-pyridine-2-carboxylic acid [2-(4-{[cyano-(4-ethyl-phenyl)-methyl]-carbamoyl}-[1,2,3]triazol-1-yl)-ethyl]-amide]
IC50 [1]: ≥ 20 µM
IC50 (β 1c (caspase-like)): ≥ 20 µM
IC50 [2]: 2.88 µM
IC50 (β 2c/2i (trypsin-like)): ≥ 20 µM

Compound: N#CC(NC(=O)c1cn(CCNC(=O)c2cc(Cl)ccc2Cl)nn1)c1ccc(C(F)(F)F)cc1 (centres unmarked) [Example 69, 1-[2-(2,5-Dichloro-benzoylamino)-ethyl]-1H-[1,2,3]triazole-4-carboxylic acid [cyano-(4-trifluoromethyl-phenyl)-methyl]-amide]
IC50 [1]: ≥ 20 µM
IC50 (β 1i (caspase-like)): ≥ 20 µM
IC50 [2]: 3.79 µM
IC50 (β 2c/2i (trypsin-like)): ≥ 20 µM

Compound: CCc1ccc(C(C#N)NC(=O)c2cn(CCNC(=O)c3ccc(OC)nn3)nn2)cc1 (centres unmarked) [Example 40, 6-Methoxy-pyridazine-3-carboxylic acid [2-(4-{[cyano-(4-ethyl-phenyl)-methyl]-carbamoyl}-[1,2,3]triazol-1-yl)-ethyl]-amide]
IC50 [1]: ≥ 20 µM
IC50 (β 1i (caspase-like)): ≥ 20 µM
IC50 [2]: 4.06 µM
IC50 (β 2c/2i (trypsin-like)): ≥ 20 µM

Compound: CCc1ccc(C(C#N)NC(=O)c2cn(CCNC(=O)c3cccc(OC)c3OC)nn2)cc1 (centres unmarked) [Example 16, 1-[2-(2,3-Dimethoxy-benzoylamino)-ethyl]-1H-[1,2,3]triazole-4-carboxylic acid [cyano-(4-ethyl-phenyl)-methyl]-amide]
IC50 [1]: ≥ 20 µM
IC50 (β 1c (caspase-like)): ≥ 20 µM
IC50 [2]: 1.12 µM
IC50 (β 2c/2i (trypsin-like)): ≥ 20 µM

Compound: CCc1ccc(C(C#N)NC(=O)c2cn(CCNC(=O)c3ncccc3OC)nn2)cc1 (centres unmarked) [Example 17, 3-Methoxy-pyridine-2-carboxylic acid [2-(4-{[cyano-(4-ethyl-phenyl)-methyl]-carbamoyl}-[1,2,3]triazol-1-yl)-ethyl]-amide]
IC50 [1]: ≥ 20 µM
IC50 (β 1c (caspase-like)): ≥ 20 µM
IC50 [2]: 9.93 µM
IC50 (β 2c/2i (trypsin-like)): ≥ 20 µM

Now those with a lower IC50 [2], led by results:

IC50 [1]: ≥ 20 µM
IC50 (β 1i (caspase-like)): ≥ 20 µM
IC50 (β 1c (caspase-like)): ≥ 20 µM
IC50 [2]: 0.163 µM
IC50 (β 2c/2i (trypsin-like)): ≥ 20 µM
Compound: O=C(N[C@@H](CCc1ccccc1)C(=O)O)c1cn(CCNC(=O)c2ccc(C(F)(F)F)cc2F)nn1 [Example 82, (S)-2-({1-[2-(2-Fluoro-4-trifluoromethyl-benzoylamino)-ethyl]-1H-[1,2,3]triazole-4-carbonyl}-amino)-4-phenyl-butyric acid]

IC50 [1]: ≥ 20 µM
IC50 (β 1i (caspase-like)): ≥ 20 µM
IC50 (β 1c (caspase-like)): ≥ 20 µM
IC50 [2]: 0.239 µM
IC50 (β 2c/2i (trypsin-like)): ≥ 20 µM
Compound: CCc1ccc(C(C#N)NC(=O)c2cn(CCCNC(=O)c3ccc(C(F)(F)F)cc3OC)nn2)cc1 (centres unmarked) [Example 85, 1-[3-(2-Methoxy-4-trifluoromethyl-benzoylamino)-propyl]-1H-[1,2,3]triazole-4-carboxylic acid [cyano-(4-ethyl-phenyl)-methyl]-amide]

IC50 [1]: ≥ 20 µM
IC50 (β 1i (caspase-like)): ≥ 20 µM
IC50 (β 1c (caspase-like)): ≥ 20 µM
IC50 [2]: 0.423 µM
IC50 (β 2c/2i (trypsin-like)): ≥ 20 µM
Compound: COc1ccc(C(C#N)NC(=O)c2cn(CCNC(=O)c3ccc(OC)c(OC)c3OC)nn2)cc1 (centres unmarked) [Example 8, 1-[2-(2,3,4-Trimethoxy-benzoylamino)-ethyl]-1H-[1,2,3]triazole-4-carboxylic acid [cyano-(4-methoxy-phenyl)-methyl]-amide]

IC50 [1]: 16.3 µM
IC50 (β 1i (caspase-like)): ≥ 20 µM
IC50 [2]: 0.274 µM
IC50 (β 2c/2i (trypsin-like)): ≥ 20 µM
Compound: CCc1ccc(C(C#N)NC(=O)c2cn(CCNC(=S)c3ccc(OC)c(OC)c3OC)nn2)cc1 (centres unmarked) [Example 86, 1-[2-(2,3,4-Trimethoxy-thiobenzoylamino)-ethyl]-1H-[1,2,3]triazole-4-carboxylic acid [cyano-(4-ethyl-phenyl)-methyl]-amide]

IC50 [1]: ≥ 20 µM
IC50 (β 1i (caspase-like)): ≥ 20 µM
IC50 [2]: 0.159 µM
IC50 (β 2c/2i (trypsin-like)): ≥ 20 µM
Compound: COc1ccc(C(=O)NCCn2cc(C(=O)NC(C#N)c3ccc(C4CC4)cc3)nn2)c(OC)c1OC (centres unmarked) [Example 58, 1-[2-(2,3,4-Trimethoxy-benzoylamino)-ethyl]-1H-[1,2,3]triazole-4-carboxylic acid [cyano-(4-cyclopropyl-phenyl)-methyl]-amide]

IC50 [1]: ≥ 20 µM
IC50 (β 1c (caspase-like)): ≥ 20 µM
IC50 [2]: 0.482 µM
IC50 (β 2c/2i (trypsin-like)): ≥ 20 µM
Compound: CCc1ccc(C(C#N)NC(=O)c2cn(CCNC(=O)c3cccc4c3OCCO4)nn2)cc1 (centres unmarked) [Example 18, 1-{2-[(2,3-Dihydro-benzo[1,4]dioxine-5-carbonyl)-amino]-ethyl}-1H-[1,2,3]triazole-4-carboxylic acid [cyano-(4-ethyl-phenyl)-methyl]-amide]

IC50 [1]: 12 µM
IC50 (β 1c (caspase-like)): ≥ 20 µM
IC50 [2]: 0.111 µM
IC50 (β 2c/2i (trypsin-like)): ≥ 20 µM
Compound: CCc1ccc(C(C#N)NC(=O)c2cn(CCNC(=O)c3ccc(SC)cc3OC)nn2)cc1 (centres unmarked) [Example 19, 1-[2-(2-Methoxy-4-methylsulfanyl-benzoylamino)-ethyl]-1H-[1,2,3]triazole-4-carboxylic acid [cyano-(4-ethyl-phenyl)-methyl]-amide]

IC50 [1]: 12.5 µM
IC50 (β 1c (caspase-like)): 19 µM
IC50 [2]: 0.338 µM
IC50 (β 2c/2i (trypsin-like)): ≥ 20 µM
Compound: COc1ccc(C(=O)NCCn2cc(C(=O)NC(C#N)c3ccc4ccccc4c3)nn2)c(OC)c1OC (centres unmarked) [Example 49, 1-[2-(2,3,4-Trimethoxy-benzoylamino)-ethyl]-1H-[1,2,3]triazole-4-carboxylic acid (cyano-naphthalen-2-yl-methyl)-amide]

IC50 [1]: ≥ 20 µM
IC50 (β 1i (caspase-like)): ≥ 20 µM
IC50 [2]: 0.517 µM
IC50 (β 2c/2i (trypsin-like)): ≥ 20 µM
Compound: CCc1ccc(C(C#N)NC(=O)c2cn(CCNC(=O)c3cc(C(F)(F)F)ccc3OC)nn2)cc1 (centres unmarked) [Example 39, 1-[2-(2-Methoxy-5-trifluoromethyl-benzoylamino)-ethyl]-1H-[1,2,3]triazole-4-carboxylic acid [cyano-(4-ethyl-phenyl)-methyl]-amide]

IC50 [1]: ≥ 20 µM
IC50 (β 1c (caspase-like)): ≥ 20 µM
IC50 [2]: 0.196 µM
IC50 (β 2c/2i (trypsin-like)): ≥ 20 µM
Compound: CCc1ccc(C(C#N)NC(=O)c2cn(CCNC(=O)c3ccc(Cl)cc3OC)nn2)cc1 (centres unmarked) [Example 20, 1-[2-(4-Chloro-2-methoxy-benzoylamino)-ethyl]-1H-[1,2,3]triazole-4-carboxylic acid [cyano-(4-ethyl-phenyl)-methyl]-amide]

IC50 [1]: 16.3 µM
IC50 (β 1c (caspase-like)): ≥ 20 µM
IC50 [2]: 0.201 µM
IC50 (β 2c/2i (trypsin-like)): ≥ 20 µM
Compound: COc1ccc(C(=O)NCCn2cc(C(=O)NC(C#N)c3ccc4sccc4c3)nn2)c(OC)c1OC (centres unmarked) [Example 48, 1-[2-(2,3,4-Trimethoxy-benzoylamino)-ethyl]-1H-[1,2,3]triazole-4-carboxylic acid (benzo[b]thiophen-5-yl-cyano-methyl)-amide]
